These results are taken from US7074824B2, “Pharmaceutical compositions containing beta-lapachone, or derivatives or analogs thereof, and methods of using same” (Arqule, Inc., priority 2001, dated 2006).

SMILES strings stand for the structures. Values after ≈ are worked out from the molar mass of the structure shown. Where two headings read alike, the source gives them in different places.

The subject of data set [1] is Human ovarian cancer cells (36M2). Put plainly: Human ovarian cancer xenograft model, β-lapachone in Lipiodol and Taxol®. Particulars: i.p., 10 cycles. The data set is classed as in vivo, athymic female nude mice. The procedure: Human ovarian cancer cells (36M2, originally isolated from malignant ascites) were inoculated by i.p. injection into athymic female nude mice 24 h after irradiation. In this model, metastatic foci form approximately 1 week after inoculation, and tumor nodules of the peritoneum and malignant ascites develop in 4–5 weeks. Ten days after tumor inoculation (10×10^6 cells), treatment regimens were initiated. The control group was treated with vehicle alone. In each typical treatment cycle, the β-lapachone alone group was treated with 25–50 mg/kg i.p. of β-lapachone in Lipiodol solution and the Taxol® alone group was treated at 1 mg/kg i.p. (Taxol® formulation diluted in Lipiodol), both followed 24 h later by i.p. injection of vehicle. In the combination group, nude mice were treated with β-lapachone at 25–50 mg/kg, followed 24 h later by Taxol® at 1 mg/kg. All groups were treated for 10 cycles, with a 1-day break between each cycle. […] Host toxicity was evaluated by general appearance and body weight.
(In general: Xenograft models place foreign cells or tissue in a host animal.)

The next data set deals with human carcinoma cells. Put plainly: Colony formation assay of β-lapachone combined with Taxol®. The data set is classed as cell-based. As to conditions: 4 h exposure, colonies scored after 10–20 days; ovarian, breast, prostate, melanoma, lung and pancreatic cell lines, FIG. 4. The procedure:
In these studies, exponentially growing cells were seeded at 1,000 cells per well in six-well plates and allowed to attach for 48 h. β-lapachone and/or Taxol®, solubilized in DMSO, were added to the wells. Control wells were treated with equivalent volumes of DMSO. After 4 h cells were rinsed and fresh medium was added. Cultures were observed daily for 10–20 days and then were fixed and stained. Colonies of greater than 30 cells were scored as survivors.

The subject of a further data set is A2780DDP. As to conditions: stated as typical value, read-out: IC50 concentration; cited from earlier work.
Data set [2] in a line: Solubility in water and in 40% (w/v) HPBCD solution by UV absorbance. The data set is classed as physicochemical. The procedure:
To determine solubilities, test compounds were first dissolved in ethanol to prepare standard solutions with concentrations in the range 2.5–10 mg/ml, then were diluted with to 10 μg/ml with water. UV scans were obtained of the 10 μg/ml standard solutions, and the wavelength of maximum absorbance and the absorbance at the maximum absorbance wavelength were determined. For each test compound 50 μl aliquots of water and of 40% HPBCD were added to individual Eppendorf tubes containing approximately 1 mg of compound each. The tubes were heated in a 30° C. waterbath, vortexed, then centrifuged at 15,000 rpm for 5 min. This step was repeated, then the tubes were cooled to room temperature for 1 hour, then were centrifuged again. The supernatant from each tube was diluted with water into the appropriate absorbance range, and the UV absorbance was measured at the compound's absorbance maximum wavelength. The concentrations of these saturated solutions were then calculated by ratio to the 10 μg/ml ethanolic standard solutions.

For data set [3], the system named is six human cancer cells lines. Kind of data set: MTS growth inhibition assay, summary over all lines. The data set is classed as cell-based. Particulars: all six tumor cell lines; tested up to 20 μM. The procedure: (§1) A2780 and A2780/CP (ovarian); MCF-7 (breast); HT-29 (colon); BxPC-3 (pancreas); and A549 (lung). The human tumor cell lines (purchased from ATCC, Rockville, Md.) were cultured at 37° C. (5% CO2) in RPMI medium (RPMI; Nova Tech, Grand Island, N.Y.) containing 10% fetal bovine serum (FBS, Nova Tech). Aliquots of cells were seeded into each well of 96-well microtiter plates at a final concentration of 10^4 cells/well and incubated for 24 h prior to exposure to test compounds. […] The MTS assay is a colorimetric assay based upon the ability of viable cells to convert MTS, a novel tetrazolium compound and electron-coupling reagent, to a colored formazan product that is soluble in cell culture medium. The cell concentration is then determined by measuring the absorbance of the formazan product at 490 nm. Growth inhibition, expressed as IC50, is calculated relative to vehicle-treated control cells.

The subject of another data set is A2780CP. Kind of data set: MTS growth inhibition assay. Particulars: A2780CP (resistant) ovarian, read-out: Growth inhibitory activity (50% effective concentration, IC50). The data set is classed as cell-based, human. The procedure: as §1, with “(5% CO2) in RPMI medium (RPMI;” left out
On the technique in general: Tetrazolium assays rely on reduction of a dye to a coloured formazan, in cell work by metabolically active cells.

For the next data set, the system named is A549. Put plainly: MTS growth inhibition assay. The data set is classed as cell-based, human. As to conditions: A549 lung, read-out: Growth inhibitory activity (50% effective concentration, IC50). The procedure: as §1, with “(5% CO2) in RPMI medium (RPMI;” left out
The next data set deals with BxPC-3. Kind of data set: MTS growth inhibition assay. The data set is classed as cell-based, human. As to conditions: BxPC-3 pancreas, read-out: Growth inhibitory activity (50% effective concentration, IC50). The procedure: as §1, with “(5% CO2) in RPMI medium (RPMI;” left out
The test system of a further data set is A2780. Put plainly: MTS growth inhibition assay. Particulars: A2780 (sensitive) ovarian, read-out: Growth inhibitory activity (50% effective concentration, IC50). The data set is classed as cell-based, human. On the procedure:
as §1, with “(5% CO2) in RPMI medium (RPMI;” left out

A further data set has as its system HT-29. Put plainly: MTS growth inhibition assay. The data set is classed as cell-based, human. Particulars: HT-29 colon, read-out: Growth inhibitory activity (50% effective concentration, IC50). On the procedure: as §1, with “(5% CO2) in RPMI medium (RPMI;” left out
A further data set deals with MCF-7. Kind of data set: MTS growth inhibition assay. The data set is classed as cell-based, human. As to conditions: MCF-7 breast, read-out: Growth inhibitory activity (50% effective concentration, IC50). The procedure: as §1, with “(5% CO2) in RPMI medium (RPMI;” left out

On to `CC(=O)O[C@H]1C(=O)[C@@]2(C)[C@H]([C@H](OC(=O)c3ccccc3)[C@]3(O)C[C@H](OC(=O)[C@H](O)[C@@H](NC(=O)c4ccccc4)c4ccccc4)C(C)=C1C3(C)C)[C@]1(OC(C)=O)CO[C@@H]1C[C@@H]2O` [Taxol®, paclitaxel, reference compound], for which the “decrease in tumor number versus control” value in [1] (assessed day 50, β-lapachone 25–50 mg/kg in Lipiodol, Taxol® 1 mg/kg) was around 60%. Further, in [1] (laparotomy at day 50), the “size of the tumor nodules and amount of ascites” value was “considerable reduction in the size of the tumor nodules and the amount of ascites”. Further, the “inhibition of cancer cell survival (colony formation)” value in the data set with human carcinoma cells is on record as “much less effective”.

On to `N.N.[Cl][Pt][Cl]` [cisplatin], for which the IC50 in the data set with A2780DDP is above 100 µM.

With `CC(=O)OC1CC(C)(C)OC2=C1C(=O)C(=O)c1ccccc12` (stereo not drawn) [CO-504, 4-acetoxy β-lapachone], the “Solubility in HPBCD Solution” value in [2] (40% (w/v) HPBCD, room temperature, saturated solution) was determined as 2100 µg/mL (≈ 6.99 mM). Also, in data set [2] (40% HPBCD versus water), the “Solubility Enhancement” value is on record as 7.4 −Fold. Also, the “Solubility in Water” value in data set [2] (water, room temperature, saturated solution) came out at 284 µg/mL (≈ 0.946 mM). Besides, the “growth inhibitory activity, verbal summary” value in data set [3] was “very similar to CO-501 in inhibitory activity”. In addition, the IC50 in the data set with A2780CP (Exp 1) is 0.678 µM; in the data set on A2780CP (Exp 2), 4 µM; in the data set on A2780CP (Exp 3), 2.56 µM; in the data set with A2780CP (Mean ± SE of 3 experiments), 2.41 ± 0.96 µM; in the data set with A549 (Exp 1), 19.3 µM; in the data set on A549 (Exp 2), 6.87 µM. In addition, the IC50 amounted to 3.75 µM in the data set with A549 (Exp 3); 9.97 ± 4.74 µM in the data set on A549 (Mean ± SE of 3 experiments); 10.5 µM in the data set on BxPC-3 (Exp 1); 13.5 µM with BxPC-3 (Exp 2); 2.32 µM in the data set on BxPC-3 (Exp 3); 8.74 ± 3.33 µM in the data set with BxPC-3 (Mean ± SE of 3 experiments). Besides, the IC50 with A2780 (Exp 1, 4 h treatment + 24 h drug-free) amounted to 1.83 µM; in the data set on A2780 (Exp 2, 4 h treatment + 24 h drug-free), 1.6 µM; in the data set on A2780 (Exp 3, 4 h treatment + 24 h drug-free) it was 1.19 µM; with A2780 (Mean ± SE of 3 experiments), 1.54 ± 0.19 µM; with HT-29 (Exp 1) it was 14.1 µM; with HT-29 (Exp 2) it was 6.67 µM. In addition, the IC50 with HT-29 (Exp 3) was found to be 3.98 µM; in the data set on HT-29 (Mean ± SE of 3 experiments) it was 8.25 ± 3.03 µM; in the data set on MCF-7 (Exp 1) it was 2.59 µM; with MCF-7 (Exp 2), 4.78 µM; in the data set on MCF-7 (Exp 3), 4.28 µM; with MCF-7 (Mean ± SE of 3 experiments) it was 3.88 ± 0.67 µM.
